Experimental data taken from patent US20230144459A1, “SHEDDING BLOCKING AGENTS WITH INCREASED STABILITY” (BIOND BIOLOGICS LTD., priority 2020, published 2023).

Target: T1, human CD28 (shedding of sCD28 from cells) (Homo sapiens, UniProt P10747)
T1 construct: endogenous in cells; host or cells: CD4 T cells and PBMCs from fresh blood of healthy donors
Test: Inhibition of CD28 shedding in stimulated lymphocytes (CD4 with PHA and IL-2 or PBMCs with SEB)
Assay type: cell-based
Settings: percent of soluble CD28 reduction from basal stimulation; constructs and isotype 3 μM, MMPi TMI-1 1 μM

T1 sequence (P10747 19-220): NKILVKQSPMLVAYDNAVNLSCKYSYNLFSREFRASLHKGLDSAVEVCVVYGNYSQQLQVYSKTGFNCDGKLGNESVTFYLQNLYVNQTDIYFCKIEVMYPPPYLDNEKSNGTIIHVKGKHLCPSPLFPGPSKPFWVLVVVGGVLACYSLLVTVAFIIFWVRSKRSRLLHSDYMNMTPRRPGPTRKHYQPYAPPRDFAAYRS

`CC#CCOc1ccc(S(=O)(=O)N2CCSC(C)(C)[C@@H]2C(=O)NO)cc1` [MMPi, TMI-1, reference compound] was tested, and the “Inhibition (%) of CD28 shedding” value was 60.5%.
